# Laboratory results taken from patent US10285994B2, “Method of preventing or treating osteoporosis by neddylation inhibitor” (Chang Gung University, priority 2017, dated 2019).
# What was measured:
# [1] = tested on: primary mouse bone marrow-derived macrophages (BMMs); experiment: Pit assay on Corning Osteo Surface, BMM-derived osteoclasts; format: cell-based; details: M-CSF, sRANKL, 7 days, FIG. 1B
# Description: (§1) FIGS. 1A-1D are data collected from primary mouse bone marrow-derived macrophages (BMMs) respectively incubated in the medium containing the soluble recombinant RANKL (sRANKL, 50 ng/ml), macrophage colony-stimulating factor (M-CSF, 40 ng/ml) and specified concentrations of MLN4924 for 7 days according to example 1.1 of the present disclosure. FIG. 1A: the photographs of TRAP staining depicting the differentiation of osteoclasts from BMMs. FIG. 1B: after the differentiation of osteoclasts in Corning Osteo Surface (a synthetic 3-dimensional structure that mimics in vivo bone for in vitro bone cell assays), the cells were removed, and the resorbed areas for confirming osteoclast activity were analyzed by 1% toluidine blue staining. FIG. 1C: the culture medium is subject to Biovision Cathepsin K Activity Fluorometric Assay Kit for the analysis of cathepsin K activity. FIG. 1D: the effect of effective doses of MLN4924 on the viability of BMMs is evaluated by MTT assay. Scale bar represents 100 μm. Data are expressed as mean±SD where *p<0.05; **p<0.01.
# The pre-osteoclasts and RAW264.7 cells were seeded into Corning Osteo Surface Assay 96-wells plate (Corning, Kennebunk, Me.). […]
# The effect of MLN4924 on the activity of osteoclast was then confirmed by pit assay. […] The resorbing areas on bone matrix by osteoclasts were visualized by 1% toluidine blue staining and quantified by image software.
# cathepsin K = experiment: Cathepsin K activity fluorometric assay, RAW264.7 cells; format: cell-based, mouse; details: sRANKL-activated RAW264.7 cells, 7 days, FIG. 2C
# Description: FIGS. 2A-2D are data collected from RAW264.7 cells respectively incubated in the medium containing sRANKL (50 ng/ml) and specified concentrations of MLN4924 for 7 days according to example 1.2 of the present disclosure. FIG. 2A: the photographs of TRAP staining depicting the differentiation of osteoclasts from RAW264.7 cells. FIG. 2B: after the differentiation of osteoclasts in Corning Osteo Surface, the cells were removed, and the resorbed areas for confirming osteoclast activity were analyzed by 1% toluidine blue staining. FIG. 2C: the culture medium is subject to Biovision Cathepsin K Activity Fluorometric Assay Kit for the analysis of cathepsin K activity. FIG. 2D: the effect of effective doses of MLN4924 on the viability of RAW264.7 cells is evaluated by MTT assay. Scale bar represents 100 μm. Data are expressed as mean±SD where *p<0.05.
# The pre-osteoclasts and RAW264.7 cells were seeded into Corning Osteo Surface Assay 96-wells plate (Corning, Kennebunk, Me.). Twenty-four hours later, the cells were treated with sRANKL (50 ng/ml) and specified concentrations of MLN4924 for 7 days. The cells were then harvested so as to evaluate the cathepsin K activity by use of Biovision Cathepsin K Activity Fluorometric Assay Kit (Biovision, Milpitas, Calif.). The Corning Osteo surface was stained with 1% toluidine blue for 24 hours and washed with deionized water twice. […]
# [2] = tested on: primary mouse bone marrow-derived macrophages (BMMs); experiment: Viability of BMMs (WST / MTT assay); format: cell-based; details: doses that inhibit osteoclast differentiation, FIG. 1D
# Description: as §1, with “**p<0.01. Next, the WST assay was used to determine whether the suppressed osteoclastogenesis by MLN4924 was caused by cytotoxicity.” for “**p<0.01.”
compound,measurement,setting,value
"NS(=O)(=O)OC[C@@H]1C[C@@H](n2ccc3c(N[C@H]4CCc5ccccc54)ncnc32)C[C@@H]1O [MLN4924, (1S,2S,4R)-4-(4-((1S)-2,3-Dihydro-1H-inden-1-ylamino)-7H-pyrrolo(2,3-d)pyrimidin-7-yl)-2-hydroxycyclopentyl) methyl sulphamate]","resorbing activity of osteoclasts (pit assay, toluidine blue)",[1],suppressed the resorbing activity of osteoclasts in a dose-dependent manner
same,osteolytic enzyme cathepsin K activity of osteoclasts,cathepsin K,significantly inhibited
same,cytotoxicity / viability of BMMs,[2],no cytotoxic effects at doses that effectively inhibited osteoclast differentiation
